The record followed here is patent US7858630B2, “D3 and 5-HT2A receptor modulators” (Hoffmann-La Roche Inc., priority 2008, dated 2010).

SMILES strings stand for the structures. A value given as a limit tells only on which side of the number the result lay.

By Ki is commonly meant the equilibrium dissociation constant of an inhibitor or competing ligand from its target.

Assay [1] concerns the target T1, human dopamine D2 receptor (Homo sapiens, UniProt P14416).
T1 construct: expressed in transfected cells; host or cells: HEK-293 EBNA cells, transient transfection; membrane preparation
Nature of the assay: Radioligand binding ([3H]-spiperone) to membranes of HEK-293 EBNA cells expressing human D2 receptor. The note with it: human D2, 0.7 nM [3H]-spiperone, HEK-293 EBNA membranes, 1 h at RT. An outline of the steps:
(§1)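 Membranes from HEK-293 EBNA cells transiently transfected with the receptor were incubated 1 h at RT with ten test concentrations (10 μM–0.1 nM) and ~0.7 nM [3H]-spiperone (D2), 0.5 nM [3H]-spiperone (D3) or 1.1 nM [3H]-ketanserin (5-HT2A). Nonspecific binding was set with 10 μM spiperone, bound radioactivity was read by filtration and scintillation, and Ki was taken from IC50 via Cheng-Prusoff.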

Assay [2] addresses T2, human dopamine D3 receptor (Homo sapiens, UniProt P35462).
T2 construct: expressed in transfected cells; host or cells: HEK-293 EBNA cells, transient transfection; membrane preparation
Nature of the assay: Radioligand binding ([3H]-spiperone) to membranes of HEK-293 EBNA cells expressing human D3 receptor. The note with it: human D3, 0.5 nM [3H]-spiperone, HEK-293 EBNA membranes, 1 h at RT. The method in brief: as §1

Assay [3] deals with T3, human serotonin 5-HT2A receptor (Homo sapiens, UniProt P28223).
T3 construct: expressed in transfected cells; host or cells: HEK-293 EBNA cells, transient transfection; membrane preparation
Put plainly: Radioligand binding ([3H]-ketanserin) to membranes of HEK-293 EBNA cells expressing human 5-HT2A receptor. Particulars: 1.1 nM [3H]-ketanserin, HEK-293 EBNA membranes, 1 h at RT. An outline of the steps: as §1

T2 sequence (P35462 whole entry): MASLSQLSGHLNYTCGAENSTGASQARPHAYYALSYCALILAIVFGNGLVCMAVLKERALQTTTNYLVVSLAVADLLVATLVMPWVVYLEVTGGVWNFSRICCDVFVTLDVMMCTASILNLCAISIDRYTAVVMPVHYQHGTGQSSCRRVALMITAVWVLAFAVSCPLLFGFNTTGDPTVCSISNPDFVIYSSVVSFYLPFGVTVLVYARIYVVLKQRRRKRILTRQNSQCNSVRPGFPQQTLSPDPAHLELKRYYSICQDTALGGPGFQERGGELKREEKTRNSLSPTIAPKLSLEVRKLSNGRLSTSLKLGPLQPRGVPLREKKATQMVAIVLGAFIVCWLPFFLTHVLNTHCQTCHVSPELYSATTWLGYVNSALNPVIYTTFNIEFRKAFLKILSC
T1 sequence (P14416 whole entry): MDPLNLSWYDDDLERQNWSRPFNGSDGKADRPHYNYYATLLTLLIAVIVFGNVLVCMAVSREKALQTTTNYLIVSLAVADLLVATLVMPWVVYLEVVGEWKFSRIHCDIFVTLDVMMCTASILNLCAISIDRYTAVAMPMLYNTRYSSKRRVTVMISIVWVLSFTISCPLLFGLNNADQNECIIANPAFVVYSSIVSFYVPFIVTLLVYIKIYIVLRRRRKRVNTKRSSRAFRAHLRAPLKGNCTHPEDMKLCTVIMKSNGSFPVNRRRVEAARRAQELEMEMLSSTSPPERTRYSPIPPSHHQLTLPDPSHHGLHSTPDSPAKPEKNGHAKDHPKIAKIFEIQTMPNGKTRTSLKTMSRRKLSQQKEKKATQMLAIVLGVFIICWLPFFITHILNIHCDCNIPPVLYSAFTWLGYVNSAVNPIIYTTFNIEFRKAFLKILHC
T3 sequence (P28223 whole entry): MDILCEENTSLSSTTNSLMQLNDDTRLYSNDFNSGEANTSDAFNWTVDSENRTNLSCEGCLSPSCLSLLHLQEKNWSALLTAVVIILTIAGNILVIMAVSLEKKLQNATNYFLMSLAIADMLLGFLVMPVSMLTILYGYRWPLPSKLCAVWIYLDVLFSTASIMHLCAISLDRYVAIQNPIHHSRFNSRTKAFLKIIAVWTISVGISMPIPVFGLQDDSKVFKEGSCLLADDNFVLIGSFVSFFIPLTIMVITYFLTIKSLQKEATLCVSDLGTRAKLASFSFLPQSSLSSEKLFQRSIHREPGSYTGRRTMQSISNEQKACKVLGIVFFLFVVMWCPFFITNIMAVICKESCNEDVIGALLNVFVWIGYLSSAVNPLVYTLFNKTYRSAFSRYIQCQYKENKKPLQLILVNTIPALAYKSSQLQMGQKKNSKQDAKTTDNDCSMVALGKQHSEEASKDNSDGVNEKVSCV

On to `Cc1cc2c(N3CCN(CC[C@H]4CC[C@H](NC(=O)CC5OCCCO5)CC4)CC3)noc2cc1F` [Example 111, 2-[1,3]Dioxan-2-yl-N-trans-(4-{2-[4-(6-fluoro-5-methyl-benzo[d]isoxazol-3-yl)-piperazin-1-yl]-ethyl}-cyclohexyl)-acetamide], for which the Ki in assay [1] is 4040 nM; in assay [2] it was 10.6 nM; in assay [3], 7.66 nM.

Turning to `Cc1cc2c(N3CCN(CC[C@H]4CC[C@H](NC(=O)CC5CCCCO5)CC4)CC3)noc2cc1F` (stereo partly drawn) [Example 117, N-trans-(4-{2-[4-(6-Fluoro-5-methyl-benzo[d]isoxazol-3-yl)-piperazin-1-yl]-ethyl}-cyclohexyl)-2-(tetrahydro-pyran-2-yl)-acetamide], the Ki is above 2000 nM in assay [1], 33 nM in assay [2] and 8 nM in assay [3].

With `C[C@H](O)CC(=O)N[C@H]1CC[C@H](CCN2CCN(c3noc4cc(Cl)ccc34)CC2)CC1` [Example 45, (S)-N-(4-{2-[4-(6-Chloro-benzo[d]isoxazol-3-yl)-piperazin-1-yl]-ethyl}-cyclohexyl)-3-hydroxy-butyramide], the Ki in assay [1] came out at 356 nM; in assay [2] it was 15.8 nM; in assay [3], 9.21 nM.

As for `O=C(N[C@H]1CC[C@H](CCN2CCN(c3noc4cc(Cl)ccc34)CC2)CC1)C1CCOC1` (stereo partly drawn) [Example 34, Tetrahydro-furan-3-carboxylic acid N-trans-(4-{2-[4-(6-chloro-benzo[d]isoxazol-3-yl)-piperazin-1-yl]-ethyl}-cyclohexyl)-amide], the Ki in assay [1] stood at 193 nM; in assay [2], 18.8 nM; in assay [3] it was 10.4 nM.

Turning to `COCCC(=O)N[C@H]1CC[C@H](CCN2CCN(c3noc4cc(F)c(F)cc34)CC2)CC1` [Example 57, N-trans-(4-{2-[4-(5,6-Difluoro-benzo[d]isoxazol-3-yl)-piperazin-1-yl]-ethyl}-cyclohexyl)-3-methoxy-propionamide], the Ki in assay [1] came to 396 nM; in assay [2], 6.18 nM; in assay [3], 13.1 nM.

As to `O=C(CC1COC1)N[C@H]1CC[C@H](CCN2CCN(c3noc4cc(Cl)ccc34)CC2)CC1` [Example 47, N-trans-(4-{2-[4-(6-Chloro-benzo[d]isoxazol-3-yl)-piperazin-1-yl]-ethyl}-cyclohexyl)-2-oxetan-3-yl-acetamide], the Ki in assay [1] amounted to 238 nM; in assay [2], 8.14 nM; in assay [3], 6.59 nM.
